Earlier results on 3 compounds are cited in US20040024042A1, “COX2 inhibition in the prevention and treatment of autosomal dominant polycystic kidney disease” (Vanderbilt University, priority 2002, published 2004).

For data set [1], the system named is albumin and alpha1-acid glycoprotein. To be noted: within the clinical dose range.
In a further data set the target is Cytochrome P450 2C9 (Homo sapiens, UniProt P11712).
A further data set relates to mouse models of FAP. The settings on record: mice treated with COX2 inhibitor.
Test in data set [2]: not given
This is another data set of the same source.

In another data set the test system is warfarin metabolism. The settings on record: in vivo.
Test in data set [3]: not given
The source holds these as a separate data set.

Sequence of Cytochrome P450 2C9 (P11712 whole entry): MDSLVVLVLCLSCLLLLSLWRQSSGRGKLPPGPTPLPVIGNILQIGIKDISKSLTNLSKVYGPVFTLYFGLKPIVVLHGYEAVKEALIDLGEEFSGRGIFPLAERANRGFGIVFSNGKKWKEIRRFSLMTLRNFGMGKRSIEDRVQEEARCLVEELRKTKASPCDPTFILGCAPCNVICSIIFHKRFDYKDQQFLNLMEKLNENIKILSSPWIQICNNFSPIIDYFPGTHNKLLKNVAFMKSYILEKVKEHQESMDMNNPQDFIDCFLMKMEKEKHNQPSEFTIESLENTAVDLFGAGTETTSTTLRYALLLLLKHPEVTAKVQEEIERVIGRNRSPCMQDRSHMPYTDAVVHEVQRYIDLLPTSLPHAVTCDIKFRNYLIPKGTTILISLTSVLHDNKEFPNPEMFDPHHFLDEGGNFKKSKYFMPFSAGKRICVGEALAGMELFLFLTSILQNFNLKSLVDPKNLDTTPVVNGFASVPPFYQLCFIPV

In the case of `CC(=O)O[C@H]1C(=O)[C@@]2(C)[C@H]([C@H](OC(=O)c3ccccc3)[C@]3(O)C[C@H](OC(=O)[C@H](O)[C@@H](NC(=O)c4ccccc4)c4ccccc4)C(C)=C1C3(C)C)[C@]1(OC(C)=O)CO[C@@H]1C[C@@H]2O` [Taxol], the “Progression of PKD” value with PKD in animal models is reported as “slow progression of PKD”.

As to `Cc1ccc(-c2cc(C(F)(F)F)nn2-c2ccc(S(N)(=O)=O)cc2)cc1` [celecoxib, 4-[5-(4-methyphenyl)-3-(trifluoromethyl)-1H-pyrazol-1-yl] benzenesulfonamide], in data set [1], the Protein binding entry is “highly protein bound”. Moreover, the Major metabolizing enzyme entry on Cytochrome P450 2C9 is given as “Cytochrome P450 2C9”. For the same compound, the “Time of peak plasma levels” value (after an oral dose) is “roughly 3 hours”. Besides, the “Effect of antacids on plasma concentrations” value (aluminum or magnesium containing antacids) is on record as “decrease in plasma concentrations”. In addition, the Effective half-life entry (fasted conditions) is reported as “roughly 11 hours”. Also, under “following a single dose”, the “Dose excreted in feces” value is on record as 57% and the “Dose excreted in the urine” value is recorded as 27%. Besides, for the setting “taken with a high fat meal”, the “Delay of plasma levels with food” value is 1 to 2 h and the “Increase in total absorption with food” value was 10-20%.

Regarding `CS(=O)(=O)c1ccc(C2=C(c3ccccc3)C(=O)OC2)cc1` [rofecoxib], the Polyp formation result in the data set on mouse models of FAP is “marked reduction in polyp formation”. For the same compound, in the data set with Cytochrome P450 3A4 (in vivo), the “Induction of the 3A4 isoform” value is reported as “mild inducer” and the “Substrate of the P450 system” value is given as “not a substrate for the P450 system”. For the same compound, the “Reduction of the AUC of midazolam” value with Cytochrome P450 3A4 (rofecoxib 25 mg daily) is 30%. Further, the “Time to steady state level” value in [2] (25 mg qday) was 4 days. For the same compound, the “Increase of AUC in moderate hepatic insufficiency” value in [2] (Child-Pugh score 7-9) is on record as 69%. In [2] (after a 25-mg dose), the “Peak plasma concentration (Cmax)” value is 200 ng/mL. In data set [2] (antacids), the “Reduction of Cmax by antacids” value is 20% and the “Reduction of extent of absorption by antacids” value was 10-15%. In addition, in data set [2] (elderly patients (>65 yrs) compared to young subjects), the “Increase in bioavailability in elderly patients” value is given as 34%. Besides, in data set [2] (in vivo), the Cd is given as 90 L and the “Dose excreted unchanged in the urine” value was below 1%. Further, the Oral bioavailability in data set [2] (in vivo, po) is on record as above 90%. In [2] (repeated administration), the Accumulation factor is on record as 1.67. Also, the Cssmax in data set [2] (steady state, 25 mg qday) was 320 ng/mL. Moreover, the “Increase of INR with warfarin” value with warfarin metabolism was “about 10%”. The “Crossing of the placenta and the blood-brain barrier” value in [3] (animal studies) is “able to cross the placenta and the blood-brain barrier”. In data set [3] (lactating animals), the Excretion in milk result is “excreted in the milk of lactating animals”.
